The values below come from US9096853B2, “Modified siRNA molecules incorporating 5-fluoro-2′-deoxyuridine residues to enhance cytotoxicity” (U.S. Department of Veterans Affairs, priority 2012, dated 2015).

Strand notation (5' to 3'): a small letter for the sugar, then the base; units joined by * are phosphorothioate-linked, units joined directly phosphodiester-linked; [ ] holds rarer units or linkages, { } end groups; capitals alone tell only the bases. [5FU] = 5-fluoro-2'-deoxyuridine (FdU); d = 2'-deoxy (DNA); r = 2'-OH (RNA)

In data set [1] the test system is thymidylate synthase (TS) protein. Description: Immunoblot analysis of TS protein (free and ITC-bound), Odyssey quantitation. Format: cell-based, human. The note with it: RKO cells, 5 nM for 6 hr. (In general: Immunoblotting shows a protein as a band on a membrane.)
Data set [2] concerns human colon cancer RKO cell line. Nature of the data set: Clonogenic assay in RKO cells. Format: cell-based. The conditions noted are these: for IC50: 6 hr exposure, colonies counted after 8 days, mean ± S.D., at least 3 experiments. As for the experimental part: RKO cells were plated in 6-well plates at a density of 600 cells/well. On the following day, cells were transfected with ssiRNA/LF2000 complexes for 6 hr after which time, the growth medium was replaced. Similarly, FdU was added to wells for 6 hr followed by medium replacement. After 8 days, cell colonies were fixed with Trypan blue solution (75% methanol/25% acetic acid/0.25% trypan blue), washed, and air-dried before counting colonies >50 cells.

For data set [3] the test system is unchanged. Nature of the data set: Cell proliferation assay (WST-1) in RKO cells. The class given is cell-based. The note with it: for IC50: 6 hr exposure then 96 hr growth, mean ± S.D., at least 3 experiments; for effect on cell proliferation / cytotoxicity (in words): WST-1. The procedure: RKO cells were plated in 96-well plates at a density of 800 cells/well. On the following day, cells were incubated with ssiRNA/LF2000 complexes for 6 hr, after which time, the growth medium was replaced, and cells were grown for an additional 96 hr. Similarly, RKO cells were treated with FdU (#F0503, Sigma) for 6 hr followed by medium replacement and then allowed to grow for an additional 96 hr. Cell proliferation/viability was quantified by the WST-1 assay (Roche; Indianapolis, Ind.).
Background: Formazan colour is commonly taken as a measure of viable cells.

Data set [4] has as its system thymidylate synthase (TS) protein. Description: Immunoblot analysis of TS protein (free and ITC-bound), Odyssey quantitation. Format: cell-based, human. The note with it: RKO cells, ssiRNA 1 nM, 48 hr; for Free TS (%) / ITC-Bound TS (%): normalized to free TS protein in mock-transfected cells (LF2000) set to 100%, mean ± S.D., 6 experiments. As for the experimental part:
FIGS. 1A-B illustrate the effect of FdU incorporation in ssiRNA on TS protein expression. RKO cells were transfected with TS6 ssiRNAs (1 nM) containing various 3′-overhangs. After 6 hr, the medium was replaced. After an additional 48 hr, cells were harvested and processed for immunoblot and qPCR analysis as described in the Materials and Methods section. (A) Representative blot from 4 experiments. (B) All qPCR values represent the mean±S.D. from at least 3 separate experiments performed in triplicate. The normalized amount of TS mRNA from mock-transfected cells (LF2000) was set to 1.0 and all other values compared against that value. ITC, inhibitory ternary complex;
Cells were plated at a density of 1.5×10^5 cells/well. On the following day, ssiRNAs were complexed with Lipofectamine 2000 (LF2000, Invitrogen) in serum-free RPMI-1640 medium and added to the plated cells. After 48 hr, cells were rinsed with PBS and scraped in cell lysis buffer (10 mM Tris pH7.4, 150 mM NaCl, 1 mM EDTA, 1% IGEPAL, 0.5% sodium deoxycholate, and 0.1% SDS) containing freshly added Protease Inhibitor Cocktail (Sigma; St. Louis, Mo.), 1 mM phenylmethylsulfonyl fluoride, and phosphatase inhibitors (Sigma). Lysates were sonicated and then centrifuged at 14,000 rpm for 30 min at 4° C. to remove debris. Cell lysates were stored at −80° C. for future use. For mRNA analysis, total RNA was extracted using Trizol (Invitrogen) and stored at −80° C. for future use.
Protein concentrations of cell lysates were determined using the DC Protein Assay (Bio-Rad; Hercules, Calif.). Equal amounts of protein (30 μg) from each cell lysate were resolved on SDS-PAGE using the method of Laemmli (Reference 19) and transferred onto 0.45 μm nitrocellulose membranes (Bio-Rad). Membranes were blocked and incubated overnight with primary antibodies at 4° C. The following antibodies were used in the experiments: anti-TS (Clone 4H4B1; Invitrogen), anti-TS (#5449; Cell Signaling; San Francisco, Calif.), anti-p21 Waf1/Cip1 (#2947; Cell Signaling), anti-p53 (#sc-126; Santa Cruz Biotechnology; Santa Cruz, Calif.), anti-PARP (#9542; Cell Signaling), anti-Fas (#4233; Cell Signaling), anti-phospho-histone H2A.X (Ser139) (#2577; Cell Signaling), anti-histone H2A.X (#7631; Cell Signaling), anti-phospho-ATM (pS1981; EPITOMICS Inc.; Burlingame, Calif.), anti-ATM (#A1106; Sigma), and anti-α-tubulin (EMD Biosciences; San Diego, Calif.). After multiple TBST washes (1×TBS, 0.1% Tween-20), membranes were incubated with corresponding horseradish peroxidase-conjugated secondary antibodies (Bio-Rad) for 1 hr at room temperature. Proteins were detected by the enhanced chemiluminescence method (SuperSignal West Pico substrate; Pierce; Rockford, Ill.). Quantitation of signal intensities was performed by densitometry on a Xerox scanner using NIH IMAGEJ software.
Immunoblots were prepared as described above. After incubation with anti-TS polyclonal antibody, membranes were blocked with the Odyssey blocking buffer and incubated with IRDye 800CW goat anti-rabbit antibody (LI-COR Biosciences; Lincoln, Nebr., USA) according to the manufacturer instructions. The fluorescent signal was detected and quantified using the Odyssey infrared imaging system (LI-COR).

Data set [5] concerns TS6 siRNA target sequence (TS mRNA nt 1058-1077) targeted by the antisense strand. Description: Luciferase assay, vector with TS6 target site for the antisense strand. Format: cell-based, human. The conditions noted are these: RKO cells, ssiRNA 0.1 nM, 24 hr. As for the experimental part: (§1) FIG. 3 illustrates the effect of 3′-end modification on ssiRNA strand selection. RKO cells were transfected with luciferase vectors (including the TS6 target site for either the antisense (open bars) or sense strand (hatched bars)) in combination with ssiRNAs containing different 3′-end overhangs. After 24 hr, cells were harvested and luciferase activity was determined as described in the Materials and Methods section. Firefly/renilla luciferase activity from vector-alone transfection was normalized to 100%. All values represent the mean±S.D. from at least 4 separate experiments performed in duplicate;
(§2) FIGS. 4A-C illustrate the effect of 3′-end dU incorporation on ssiRNA strand selection. RKO cells were transfected with various TS6 ssiRNAs (1 nM) for 6 hr. After an additional 48 hr, cells were harvested for immunoblot (A) and qPCR (B) analysis. (C) Luciferase vectors (containing the siRNA target site for either the sense or antisense strand) were transfected into RKO cells in combination with different ssiRNAs. After 24 hr, cells were harvested and luciferase activity was determined as described in the Materials and Methods section. Luciferase activity from vector-alone transfection was normalized to 100%. All values represent the mean±S.D. from at least 4 separate experiments performed in duplicate;
(§3) A DNA oligonucleotide corresponding to the TS6 siRNA target sequence (TS mRNA nt 1058-1077: 5′-[…]-3′- SEQ ID NO: 23) was annealed to its complimentary antisense sequence and ligated into the pGL3-Promoter plasmid (Promega; Madison, WI) at restriction sites Hind III and Nco I. The luciferase mRNA expressed from this plasmid was targeted by the antisense strand of TS6 siRNA. A second plasmid was constructed with the TS mRNA sequence inserted in the opposite orientation so that it could be targeted by the sense or passenger strand of TS6 siRNA. […] After 24 hr, cells were washed with PBS, lysed in 1×PLG buffer, and firefly and renilla luciferase levels were determined by the Dual-Luciferase™ Reporter Assay system (Promega). […]

The subject of data set [6] is TS mRNA sequence in opposite orientation targeted by the sense (passenger) strand. Description: Luciferase assay, vector with TS6 target site for the sense strand. The class given is cell-based, human. The conditions noted are these: RKO cells, ssiRNA 0.1 nM, 24 hr. As for the experimental part:
as §1, §2, §3

Turning to `O=c1[nH]cc(F)c(=O)[nH]1` [5-FU, 5-fluorouracil, reference compound], the “formation of the ITC after incubation with 5-FU” value in data set [1] was “did not result in formation of the ITC”.

In general, IC50 refers to the concentration that gives 50% inhibition. Low readings indicate greater potency in that assay, high ones weaker potency in that assay. Take `O=c1[nH]c(=O)n([C@H]2C[C@H](O)[C@@H](CO)O2)cc1F` [FdU (TS inhibitor), 5-fluoro-2′-deoxyuridine]: the 50% inhibitory concentration (IC50) in data set [2] (Homo sapiens) worked out at 7.42 ± 1.33 nM; in data set [3] (Homo sapiens), 6.93 ± 2.08 nM.

On to “Mis-dU/dA: unmodified mismatched control ssiRNA; SEQ ID NO: 19 and 20 (chain 1 GGAUACUGCCAAUCUCUAGGUUUUU; chain 2 CCUAGAGAUUGGCAGUAUCCAAAAA; chain 1: sugars from the 5' end r20 d5, backbone and T or U not given here; chain 2: sugars from the 5' end r20 d5, backbone not given here) [reference compound]”, for which the “effect on clonogenic growth (in words)” value in data set [2] is on record as “no effect”. Further, in data set [4], the “Free TS (%)” value is reported as 90.1 ± 14.0%. In data set [3], the “effect on cell proliferation / cytotoxicity (in words)” value is on record as “no effect”.

With “TS6-1xF-dU/dA: ssiRNA with a single FdU residue at the 4th position in the sense strand; SEQ ID NO: 5 and 6 (chain 1 GGAUAUUGUCAGUCUUUAGGUUUUU; chain 2 CCUAAAGACUGACAAUAUCCAAAAA; FdU at position 4 of sense strand, chemistry not fully specified)”, in data set [2], the “fold lower IC50 (greater potency) versus TS6-dU/dA, clonogenic assay” value is recorded as 5 fold and half-maximal inhibition (IC50) required 0.34 ± 0.08 nM. In data set [4], the “effect on TS protein expression (in words)” value is reported as “significantly inhibited”, the “Free TS (%)” value stood at 27.3 ± 8.3% and the “ITC-Bound TS (%)” value is listed as 4.4 ± 2.6%. Further, in data set [3], the “enhancement of IC50 versus TS6-dU/dA, cell growth (WST-1) assay” value is on record as approximately 30 fold and the IC50 came out at 2.85 ± 0.83 nM.

On to “TS6-2xF-dU/dA: ssiRNA with FdU on positions 16 and 18 of the antisense strand; SEQ ID NO: 17 and 18 (chain 1 GGAUAUUGUCAGUCUUUAGGUUUUU; chain 2 CCUAAAGACUGACAAUAUCCAAAAA; chain 1: sugars from the 5' end r20 d5, backbone not given here; chain 2: sugars from the 5' end rrrrrrrrrrrrrrrdrdrrddddd, [5FU] at 16, 18, backbone not given here)”, for which, in data set [4], the “Free TS (%)” value stood at 54.1 ± 14.1% and the “ITC-Bound TS (%)” value was 15.4 ± 9.5%.

“TS6-3xF-dU/dA: ssiRNA with FdU replacing U at positions 10, 16 and 18 in the antisense strand; SEQ ID NO: 15 and 16 (chain 1 GGAUAUUGUCAGUCUUUAGGUUUUU; chain 2 CCUAAAGACUGACAAUAUCCAAAAA; FdU at antisense positions 10, 16, 18, chemistry not fully specified)”: in data set [4], the “Free TS (%)” value came out at 73.6 ± 14.7% and the “ITC-Bound TS (%)” value is 26.2 ± 10.7%.

Consider “TS6-FdU/FdU: TS-targeted ssiRNA, both 3′-ends modified with FdU; SEQ ID NO: 13 and 14 (chain 1 rGrGrArUrArUrUrGrUrCrArGrUrCrUrUrUrArGrGd[5FU]d[5FU]d[5FU]d[5FU]d[5FU]; chain 2 rCrCrUrArArArGrArCrUrGrArCrArArUrArUrCrCd[5FU]d[5FU]d[5FU]d[5FU]d[5FU])”, for which the IC50 was 0.43 ± 0.16 nM in data set [2] and 0.77 ± 0.12 nM in data set [3]. Further, in data set [2] (p=0.01), the “reduced efficacy as compared to TS6-FdU/dA, clonogenic assay” value was 2 fold.

Regarding “TS6-UU: standard TS6 siRNA with two uridine overhangs, TS-targeted; SEQ ID NO: 1 (sense) and 2 (antisense) (sense GGAUAUUGUCAGUCUUUAGGUU; antisense CCUAAAGACUGACAAUAUCCUU; RNA, backbone not given here)”, the “antisense strand targeting, luciferase (in words)” value in data set [5] is “suppressed”. The “sense strand targeting, luciferase (in words)” value in data set [6] is on record as “suppressed”.

For “TS6-dA/FdU: TS-targeted ssiRNA with FdU modification of the 3′-end of antisense strand; SEQ ID NO: 11 and 12 (chain 1 GGAUAUUGUCAGUCUUUAGGAAAAA; chain 2 CCUAAAGACUGACAAUAUCCUUUUU; chain 1: sugars from the 5' end r20 d5, backbone not given here; chain 2: sugars from the 5' end r20 d5, [5FU] at 21, 22, 23, 24, 25, backbone not given here)”, the “less targeting by the antisense strand” value in data set [5] was determined as 2 fold. In data set [2], the “effect on clonogenic growth (in words)” value is listed as “significantly less effective” and inhibition was half-maximal at 0.4 ± 0.2 nM (IC50). Further, in data set [4], the “effect on TS protein expression (in words)” value is listed as “reduced the ability”, the “Free TS (%)” value was found to be 48.0 ± 18.6% and the “ITC-Bound TS (%)” value is listed as 30.6 ± 15.6%. Further, in data set [3], the half-maximal inhibitory concentration (IC50) amounted to 1.27 ± 0.32 nM and the “effect on cell proliferation / cytotoxicity (in words)” value is recorded as “significantly less effective”. The “sense strand targeting, luciferase (in words)” value in data set [6] is listed as “enhanced”.
